Test results taken from ChEMBL document CHEMBL1142983, “Carbonic anhydrase inhibitors: inhibition of isozymes I, II, and IX with triazole-linked O-glycosides of benzene sulfonamides” (J Med Chem, 2007).

Legend:
Carbonic anhydrase 2 = Carbonic anhydrase 2 (Homo sapiens, UniProt P00918)
Description: Inhibition of human recombinant isozyme CA2 by CO2 hydration method

Carbonic anhydrase 9 = Carbonic anhydrase 9 (Homo sapiens, UniProt Q16790)
Description: Inhibition of catalytic domain of human recombinant isozyme CA9 by CO2 hydration method

| Structure (SMILES) | Ki (Carbonic anhydrase 2) | Ki (Carbonic anhydrase 9) |
| --- | --- | --- |
| CC(=O)OC[C@H]1O[C@H](O[C@H]2[C@H](OC(C)=O)[C@@H](OC(C)=O)[C@H](OCc3cn(-c4ccc(S(N)(=O)=O)cc4)nn3)O[C@@H]2COC(C)=O)[C@H](OC(C)=O)[C@@H](OC(C)=O)[C@@H]1OC(C)=O | 0.0078 µM |  |
| NS(=O)(=O)c1ccc(-n2cc(CO[C@@H]3O[C@H](CO)[C@@H](O[C@H]4O[C@H](CO)[C@@H](O)[C@H](O)[C@H]4O)[C@H](O)[C@H]3O)nn2)cc1 |  | 0.084 µM |
| NS(=O)(=O)c1ccc(-n2cc(CO[C@@H]3O[C@H](COCc4ccccc4)[C@@H](OCc4ccccc4)[C@H]3OCc3ccccc3)nn2)cc1 | 0.0076 µM |  |
| CC(=O)OC[C@H]1O[C@@H](OCc2cn(-c3ccc(S(N)(=O)=O)cc3)nn2)[C@H](OC(C)=O)[C@@H](OC(C)=O)[C@H]1OC(C)=O |  | 0.0097 µM |
| [N-]=[N+]=Nc1ccc(S(N)(=O)=O)cc1 |  | 0.105 µM |
| NS(=O)(=O)c1ccc(-n2cc(COC3OC[C@@H](O)[C@@H](O)[C@@H]3O)nn2)cc1 (some centres undefined) | 0.0069 µM | 0.103 µM |
| CC(=O)OC[C@H]1O[C@@H](OCc2cn(-c3ccc(S(N)(=O)=O)cc3)nn2)[C@H](OC(C)=O)[C@@H](OC(C)=O)[C@@H]1OC(C)=O |  | 0.107 µM |
| NS(=O)(=O)c1ccc(-n2cc(CO[C@@H]3O[C@H](CO)[C@@H](O)[C@H](O)[C@H]3O)nn2)cc1 |  | 0.101 µM |
| NS(=O)(=O)c1ccc(-n2cc(CO[C@@H]3O[C@H](CO)[C@H](O)[C@H](O)[C@H]3O)nn2)cc1 | 0.053 µM | 0.12 µM |
| CC(=O)O[C@H]1[C@H](OC(C)=O)C(OCc2cn(-c3ccc(S(N)(=O)=O)cc3)nn2)OC[C@H]1OC(C)=O (some centres undefined) | 0.0093 µM | 0.072 µM |
| NS(=O)(=O)c1ccc(-n2cc(CO[C@@H]3O[C@H](CO)[C@@H](O)[C@H]3O)nn2)cc1 |  | 0.069 µM |
